Consider two compounds from publication PMC8163394 (2020).

The subject of assay [1] is d(CGCGAATTCGCG)2 (DNA, duplex) CGCGAATTCGCG
The assay can be described thus: emission titration (quenching), TRIR. Conditions: 50 mM potassium phosphate; pH 7; [Ru] 10 μM.

Assay [2] relates to poly(dA-dT) (DNA, polymer) AT. The assay can be described thus: emission titration (enhancement), TRIR. Conditions: 10 mM sodium phosphate, [Ru] 8 μM.
In assay [3] the test system is poly(dG-dC) (DNA, polymer) GC. Kind of assay: emission titration, McGhee-von Hippel fit. Conditions: 10 mM phosphate buffer (sodium in Fig. 2, potassium in Fig. S1); pH 7, air-saturated; [Ru] 20 μM; per base.
The subject of assay [4] is d(CGCAAATTTGCG)2 (DNA, duplex) CGCAAATTTGCG
Kind of assay: emission titration (complex, decrease then increase), TRIR. The conditions noted are these: 50 mM potassium phosphate; pH 7; [Ru] 10 μM.

Assay [5] has as its system d(GCGCGCGCGC)2 (DNA, duplex) GCGCGCGCGC
The assay can be described thus: TRIR and transient absorption. The conditions noted are these: 50 mM potassium phosphate; pH 7, D2O.

For the compound `[Ru+2].c1ccc2nc3c4cccnc4c4ncccc4c3nc2c1.c1cnc2c(ccc3nccnc32)n1.c1cnc2c(ccc3nccnc32)n1` [Λ-1], the binding entry in assay [1], in assay [2] (saturation not reached), in assay [4] and in assay [5] was “yes” each time. Moreover, the Kb in assay [3] was 1.2 ± 0.1 × 10^6 M^-1.

Turning to `[Ru+2].c1ccc2nc3c4cccnc4c4ncccc4c3nc2c1.c1cnc2c(ccc3nccnc32)n1.c1cnc2c(ccc3nccnc32)n1` [Δ-1], the binding entry in assay [1], in assay [2] (reaches saturation), in assay [4] and in assay [5] was “yes” in each case. The Kb in assay [3] was 3.6 ± 0.2 × 10^6 M^-1.
